This is an account of results in patent US9006467B2, “1,2,3-triazole containing artemisinin compounds and process for preparation thereof” (Councel of Scientific & Industrial Research, priority 2011, dated 2015).

Series [1] deals with colon HCT-15 human cancer cell line. In words: In vitro cytotoxicity against human cancer cell lines (sulforhodamine B), colon HCT-15. The class given is cell-based. The following applies: 48 hours, read-out: % GROWTH INHIBITION colon HCT-15; for inhibition at 50 µM: 5 × 10^−5 M.
Series [2] relates to leukaemia THP-1. Put plainly: In vitro cytotoxicity against human cancer cell lines (sulforhodamine B), leukaemia THP-1. The following applies: 48 hours, read-out: % GROWTH INHIBITION leukaemia THP-1; for inhibition at 10 µM: 1 × 10^−5 M; for inhibition at 50 µM: 5 × 10^−5 M. The class given is cell-based. As to the method:
(§1) The human cancer cell lines procured from National Cancer Institute, Frederick, U.S.A., were used in present study. Cells were grown in tissue culture flasks in complete growth medium (RPMI-1640 medium with 2 mM glutamine, 100 μg/mL streptomycin, pH 7.4, sterilized by filtration and supplemented with 10% fetal bovine serum and 100 units/ml penicillin before use) at 37 QC in an atmosphere of 5% CO2 and 90% relative humidity in a carbon dioxide incubator. The cells at subconfluent stage were harvested from the flask by treatment with trypsin (0.05% in PBS containing 0.02% EDTA) for determination of cytotoxicity. The cell suspension of the required cell density was prepared in complete growth medium with gentamycin (50 μg/mL) for determination of cytotoxicity.
(§2) Stock solutions of 2×10^−2M of test materials were prepared in DMSO. The stock solutions were serially diluted with complete growth medium containing 50 μg/ml of gentamycin to obtain working test solution of 2×10^−5M to obtain final concentration of 1×10^−5M respectively.
(§3) In vitro cytotoxicity against human cancer cell lines was determined (Monks et al., J. Natl. Cancer Inst. 1991, 83, 757-766). The 100 μL of cell suspension was added to each well of the 96-well tissue culture plate. The cells were incubated for 24 hours (at 37° C. in an atmosphere of 5% CO2 and 90% relative humidity in a carbon dioxide incubator). Test materials in complete growth medium (100 μL) were added after 24 hours incubation to the wells containing cells. The plates were further incubated for 48 hours in a carbon dioxide incubator after addition of test material. The cell growth was stopped by gently layering trichloroacetic acid (50 μL, 50% w/v) on top of the medium in all the wells. The plates were incubated at 4° C. for one hour to fix the cells attached to the bottom of the wells. The liquid of all the wells was then gently decanted and discarded. The plates were washed five times with distilled water and air-dried. Cell growth was measured by staining with sulforhodamine B dye (Skehan et al., J. Natl. Cancer Inst. 1990, 82, 1107-1112). The adsorbed dye was dissolved in Tris-Buffer (100 μL, 0.01M, pH 10.4) and plates were gently stirred for 10 minutes on a mechanical stirrer. The optical density (OD) was recorded on ELISA reader at 540 nm.
(§4) The cell growth was calculated by subtracting mean OD value of respective blank from the mean OD value of experimental set. Percent growth in presence of test material was calculated considering the growth in absence of any test material as 100% and in turn percent growth inhibition in presence of test material was calculated. Suitable blank, controls and positive controls were included in the study.

Series [3] has as its system colon HCT-15 human cancer cell line. In words: In vitro cytotoxicity against human cancer cell lines (sulforhodamine B), colon HCT-15. The following applies: 1 × 10^−5 M, 48 hours, read-out: % GROWTH INHIBITION colon HCT-15. It counts as cell-based. As to the method:
as §1, §2, §3, §4

In series [4] the test system is Lung cancer cell A-549. Put plainly: In vitro cytotoxicity against human cancer cell lines (sulforhodamine B), Lung A-549. The class given is cell-based. As to conditions: 48 hours, read-out: % GROWTH INHIBITION Lung A-549; for inhibition at 10 µM: A549, 1 × 10^−5 M; for inhibition at 50 µM: A549, 5 × 10^−5 M. As to the method:
as §1, §2, §3, §4

Series [5] has as its system CMV. As to conditions: cited from earlier work.
The subject of series [6] is CMV. As to conditions: cited from earlier work. This is another data set of the same source.
Series [7] relates to human liver cell line of HEP-2 type. In words: In vitro cytotoxicity against human cancer cell lines (sulforhodamine B), Liver HEP-2. It counts as cell-based. As to conditions: 1 × 10^−5 M, 48 hours. As to the method: as §1, with “The cell suspension of the required cell density was prepared in complete growth medium with gentamycin (50 μg/mL) for determination of cytotoxicity.” left out
In vitro cytotoxicity against human cancer cell lines was determined (Monks et al., J. Natl. Cancer Inst. 1991, 83, 757-766). […] Cell growth was measured by staining with sulforhodamine B dye (Skehan et al., J. Natl. Cancer Inst. 1990, 82, 1107-1112). […] The optical density (OD) was recorded on ELISA reader at 540 nm.
The cell growth was calculated by subtracting mean OD value of respective blank from the mean OD value of experimental set. Percent growth in presence of test material was calculated considering the growth in absence of any test material as 100% and in turn percent growth inhibition in presence of test material was calculated. […]

Series [8] relates to Ehrlich ascites tumor (EAT) cells. The following applies: MTT assay, read-out: IC50 (drug concentration causing 50% growth inhibition of the tumor cells); cited from earlier work.
Series [9] has as its system cell line panels consisting of 60 lines. The following applies: nine disease-related subpanels; cited from earlier work.
The subject of series [10] is P388 leukemia. The following applies: NCI Report on NSC 369397; cited from earlier work.

For orientation: inhibition means the drop in the measured response relative to a control, in per cent. Take `C[C@H]1[C@H](OCCc2cn(-c3ccc(-c4ccc(-n5cc(CCO[C@@H]6O[C@@H]7O[C@@]8(C)CC[C@H]9[C@H](C)CC[C@@H]([C@H]6C)[C@@]79OO8)nn5)cc4)cc3)nn2)O[C@@H]2O[C@@]3(C)CC[C@H]4[C@H](C)CC[C@@H]1[C@@]24OO3` [Compound 13]: the inhibition at 50 µM came to 66% in series [1], 82% in series [2] and 46% in series [4]. Besides, the inhibition at 10 µM in [2] came out at 63%; in series [3], 56%; in series [4], 41%.
As to `C[C@H]1[C@H](OC(=O)CCC(=O)O)O[C@@H]2O[C@@]3(C)CC[C@H]4[C@H](C)CC[C@@H]1[C@@]24OO3` [artesunate, sodium artesunate], in series [5] (11.1 μM), the “in-vitro inhibition of clinical isolates” value is recorded as 50-80%. Moreover, in series [5] (CMV replication study), the cytotoxicity result is reported as “no cytotoxicity”. Also, the “CMV replication in rat CMV model” value in series [6] is listed as “inhibit CMV replication”.
For the compound `O=c1[nH]cc(F)c(=O)[nH]1` [5-Fluorouracil, reference compound], the inhibition at 20 µM in series [1] (2 × 10^−5 M) is 65%; in series [2] (2 × 10^−5 M) it was 73%.
Turning to `C[C@H]1[C@H](OCCc2cn(C3O[C@@H]4O[C@@]5(C)CC[C@H]6[C@H](C)CC[C@@H]([C@H]3C)[C@@]46OO5)nn2)O[C@@H]2O[C@]3(C)CC[C@H]4[C@H](C)CC[C@@H]1[C@@]24OO3` (some centres unmarked) [Compound 15], the figures for the inhibition at 50 µM in series [1], in series [2] and in series [4] were 70%, 79% and 48%, respectively. In addition, the inhibition at 10 µM in series [2] is 78%; in series [3], 66%; in series [4], 29%.
Take `C[C@H]1[C@H](OCc2cn(C3O[C@@H]4O[C@@]5(C)CC[C@H]6[C@H](C)CC[C@@H]([C@H]3C)[C@@]46OO5)nn2)O[C@@H]2O[C@]3(C)CC[C@H]4[C@H](C)CC[C@@H]1[C@@]24OO3` (some centres unmarked) [Compound 14]: the inhibition at 50 µM in series [1] worked out at 63%; in series [2] it was 62%; in series [4], 22%.
As to `C[C@H]1[C@H](OCc2cn(-c3ccc(-c4ccc(-n5cc(CO[C@@H]6O[C@@H]7O[C@@]8(C)CC[C@H]9[C@H](C)CC[C@@H]([C@H]6C)[C@@]79OO8)nn5)cc4)cc3)nn2)O[C@@H]2O[C@@]3(C)CC[C@H]4[C@H](C)CC[C@@H]1[C@@]24OO3` [Compound 12], the inhibition at 50 µM in series [1] was 78%; in [2], 80%; in [4], 64%. Besides, the inhibition at 10 µM in series [2] was 75%; in series [3], 75%; in [4], 56%.
As to `CO[C@@]12[C@H](COC(N)=O)C3=C(C(=O)C(C)=C(N)C3=O)N1C[C@@H]1N[C@@H]12` [Mitomycin-c], the “% GROWTH INHIBITION Liver HEP-2” value in series [7] is given as 58%.
On to `C[C@@H]1CC[C@H]2[C@@H](C)C(=O)O[C@@H]3O[C@@]4(C)CC[C@@H]1[C@]32OO4` [Artemisinin, artemisinin], for which, in series [5] (in-vitro), the “anti-CMV activity, in words” value is on record as “lower anti-CMV activity compared to artesunate”. For the same compound, the IC50 in series [8] was 29.8 µM. The inhibition at 50 µM in series [1] was 31%; in [4], 29%. The “anticancer activity in 60 cell line panel” value in series [9] is reported as “very little anticancer activity”. The “activity against P388 leukemia” value in [10] is “inactive”. For the same compound, the inhibition at 10 µM in series [3] came out at 29%; in [4] it was 19%.
